Data taken from ChEMBL document CHEMBL1146703, “Mannopeptimycin esters and carbonates, potent antibiotic agents against drug-resistant bacteria” (2004).

Columns and labels:
Staphylococcus aureus = experiment: Antibacterial activity against Staphylococcus aureus; format: functional
Enterococcus faecalis = experiment: Antibacterial activity against Enterococcus faecalis; format: functional
Escherichia coli = experiment: Antibacterial activity against Escherichia coli at </=64 ug/mL; No activity; format: functional, organism-based

C[C@@H](c1ccccc1)[C@@H]1NC(=O)CNC(=O)[C@H](COC(=O)C(c2ccccc2)c2ccccc2)NC(=O)[C@@H]([C@@H](O)[C@@H]2CNC(N)N2[C@H]2O[C@H](CO)[C@@H](O)[C@H](O)[C@@H]2O)NC(=O)[C@H]([C@@H](O)[C@@H]2CNC(N)N2)NC(=O)[C@@H](Cc2ccc(O[C@H]3O[C@H](CO)[C@@H](O[C@H]4O[C@H](CO)[C@@H](O)[C@H](O)[C@@H]4O)[C@H](O)[C@@H]3O)cc2)NC1=O (some centres not stated)
MIC (Staphylococcus aureus): > 64 µg/mL | MIC (Enterococcus faecalis): > 64 µg/mL | MIC (Escherichia coli): No activity

CCCCCC(=O)OC[C@H]1O[C@H](N2C(N)NC[C@H]2[C@H](O)[C@H]2NC(=O)[C@H]([C@@H](O)[C@@H]3CNC(N)N3)NC(=O)[C@@H](Cc3ccc(O[C@H]4O[C@H](CO)[C@@H](O[C@H]5O[C@H](CO)[C@@H](O)[C@H](O)[C@@H]5O)[C@H](O)[C@@H]4O)cc3)NC(=O)[C@H]([C@@H](C)c3ccccc3)NC(=O)CNC(=O)[C@H](CO)NC2=O)[C@@H](O)[C@@H](O)[C@@H]1O (some centres not stated)
MIC (Staphylococcus aureus): > 64 µg/mL | MIC (Enterococcus faecalis): > 64 µg/mL | MIC (Escherichia coli): No activity

CCCCCCC(=O)OC[C@@H]1NC(=O)[C@@H]([C@@H](O)[C@@H]2CNC(N)N2[C@H]2O[C@H](CO)[C@@H](O)[C@H](O)[C@@H]2O)NC(=O)[C@H]([C@@H](O)[C@@H]2CNC(N)N2)NC(=O)[C@@H](Cc2ccc(O[C@H]3O[C@H](CO)[C@@H](O[C@H]4O[C@H](CO)[C@@H](O)[C@H](O)[C@@H]4O)[C@H](O)[C@@H]3O)cc2)NC(=O)[C@H]([C@@H](C)c2ccccc2)NC(=O)CNC1=O (some centres not stated)
MIC (Escherichia coli): No activity

CCCC(CCC)C(=O)OC[C@H]1O[C@H](N2C(N)NC[C@H]2[C@H](O)[C@H]2NC(=O)[C@H]([C@@H](O)[C@@H]3CNC(N)N3)NC(=O)[C@@H](Cc3ccc(O[C@H]4O[C@H](CO)[C@@H](O[C@H]5O[C@H](CO)[C@@H](O)[C@H](O)[C@@H]5O)[C@H](O)[C@@H]4O)cc3)NC(=O)[C@H]([C@@H](C)c3ccccc3)NC(=O)CNC(=O)[C@H](CO)NC2=O)[C@@H](O)[C@@H](O)[C@@H]1O (some centres not stated)
MIC (Escherichia coli): No activity

CCCC(CCC)C(=O)OC[C@@H]1NC(=O)[C@@H]([C@@H](O)[C@@H]2CNC(N)N2[C@H]2O[C@H](CO)[C@@H](O)[C@H](O)[C@@H]2O)NC(=O)[C@H]([C@@H](O)[C@@H]2CNC(N)N2)NC(=O)[C@@H](Cc2ccc(O[C@H]3O[C@H](CO)[C@@H](O[C@H]4O[C@H](CO)[C@@H](O)[C@H](O)[C@@H]4O)[C@H](O)[C@@H]3O)cc2)NC(=O)[C@H]([C@@H](C)c2ccccc2)NC(=O)CNC1=O (some centres not stated)
MIC (Escherichia coli): No activity

C[C@@H](c1ccccc1)[C@@H]1NC(=O)CNC(=O)[C@H](CO)NC(=O)[C@@H]([C@@H](O)[C@@H]2CNC(N)N2[C@H]2O[C@H](COC(=O)Cc3ccccc3)[C@@H](O)[C@H](O)[C@@H]2O)NC(=O)[C@H]([C@@H](O)[C@@H]2CNC(N)N2)NC(=O)[C@@H](Cc2ccc(O[C@H]3O[C@H](CO)[C@@H](O[C@H]4O[C@H](CO)[C@@H](O)[C@H](O)[C@@H]4O)[C@H](O)[C@@H]3O)cc2)NC1=O (some centres not stated)
MIC (Escherichia coli): No activity

CCCCCC(=O)OC[C@@H]1NC(=O)[C@@H]([C@@H](O)[C@@H]2CNC(N)N2[C@H]2O[C@H](CO)[C@@H](O)[C@H](O)[C@@H]2O)NC(=O)[C@H]([C@@H](O)[C@@H]2CNC(N)N2)NC(=O)[C@@H](Cc2ccc(O[C@H]3O[C@H](CO)[C@@H](O[C@H]4O[C@H](CO)[C@@H](O)[C@H](O)[C@@H]4O)[C@H](O)[C@@H]3O)cc2)NC(=O)[C@H]([C@@H](C)c2ccccc2)NC(=O)CNC1=O (some centres not stated)
MIC (Escherichia coli): No activity

C[C@@H](c1ccccc1)[C@@H]1NC(=O)CNC(=O)[C@H](COC(=O)Cc2ccccc2)NC(=O)[C@@H]([C@@H](O)[C@@H]2CNC(N)N2[C@H]2O[C@H](CO)[C@@H](O)[C@H](O)[C@@H]2O)NC(=O)[C@H]([C@@H](O)[C@@H]2CNC(N)N2)NC(=O)[C@@H](Cc2ccc(O[C@H]3O[C@H](CO)[C@@H](O[C@H]4O[C@H](CO)[C@@H](O)[C@H](O)[C@@H]4O)[C@H](O)[C@@H]3O)cc2)NC1=O (some centres not stated)
MIC (Escherichia coli): No activity
